Data as given in US4665058A, “Compositions and method of treatment for sickle cell anemia” (The University of Kentucky Research Foundation, priority 1985, dated 1987).
Like-named read-outs stand apart in the source and are kept apart here. Blank lines part the entries; values can stand above or below the compound they belong to. Positions of bridges follow the written chain, without caps; N, C: chain ends. No end group written: not given here.

Tests used:
sickle red blood cells [1] = conditions: cited from earlier work
experimental animals = conditions: micromolar levels; cited from earlier work
[2] = at appropriate levels in the blood stream; cited from earlier work
[3] = Hemolysis of normal human red blood cells (turbidity at 610 nm); type: cell-based; conditions: human, red blood cells, cells 2 hours old, 30 min incubation, approx. 4° C., within 700 sec, n=4
Protocol: (§1) Human red blood cells were obtained by venepuncture into Na citrate or EDTA vacutainers. They were used directly or stored in serum at 4° C. for various times. Serum and leucocytes were removed by siphoning and the settled red blood cells were washed once and finally made to a 0.15% suspension with isotonic NaCl containing 5 mM KH2 PO4 (pH 6.2). These cells were kept at 2° C. for selected periods of time during a first incubation. From this point on, all experiments were performed in subdued light to protect the light-sensitive phlorizin benzylazide. The phlorizin benzylazide obtained from the synthesis described above was added at the desired concentrations, and during this variable temperature second incubation (2°-4° C. in presence of phlorizin benzylazide), the turbidity of the cell suspension was monitored at 610 nm with a continuously recording spectrophotometer to measure hemolysis. A relatively constant level of absorbance of light indicates decreased hemolysis occurring at the lower dosage and this was verified by concomitant counting of cells with a hemacytometer. Some typical data are shown in FIG. 1 showing the change in absorbance of light (note axis A) when the drug was added (at zero time).
(§2) The dose-response curve of phlorizin benzylazide acting as a hemolytic agent of normal cells is shown in FIG. 3 and the following table:
(§3) In FIG. 3, potency is expressed as the ratio, % hemolysis/t1/2, where t1/2 represents the time (seconds) required to achieve 50% of the total hemolysis produced by the particular concentration of the compound within the time of our measurements (700 sec). The cells used for these experiments were 2 hours old, and subjected to an incubation for 30 minutes before the addition of phlorizin benzylazide and continuing thereafter at approximately 4° C. (n=4). […] Thus, this blood level concentration provides anti-sickling action by reducing the concentration of hemoglobin S with an influx of water and/or salt into the cells. Further, this is accomplished with little or no red blood cell lysis and, therefore, minimum adverse side effects.

[4] = system: normal human red blood cells; experiment: as above; type: cell-based; conditions: for t1/2 (time required to achieve 50% of the total hemolysis): approx. 4° C., n=4
Protocol: as §1, §2, §3

human red blood cells = experiment: Red cell swelling / mean cell volume (Coulter Counter); type: cell-based
Protocol: as §1
In these experiments (n=2) red cells had been stored in serum for 30 hours, and experienced a first incubation for 60 min at 4° C. and a second incubation with 12.5 μM phlorizin benzylazide at 4° C. for 5 and 10 min. […] The Coulter Counter, an automated instrument which determines the number and volume of cells passing through an analysis chamber, was used to make these measurements.

sickle red blood cells [5] = experiment: Inhibition of sickling induced by deoxygenation in vitro (whole blood of sickle cell disease patients, phase microscopy); type: cell-based, human; conditions: 12.5 μM, 37° C.
Protocol: Whole blood was obtained from several volunteer sickle cell disease patients and was stored for several days at 4° C. […] Instead, whole blood was diluted into pre-warmed (37° C.) isotonic phosphate-buffered saline (± phlorizin benzylazide, 12.5 μM) which was then deoxygenated by continuous passage of an 100% Argon stream (1 liter/min) over a rotating thin film of the suspended cells. Aliquots were periodically taken, without O2 exposure, and fixed in 1% glutaraldehyde. These samples were then examined under phase microscopy for the degree of sickling by counting fields of at least 100 cells using a single blind, experimental protocol.
The data shown in FIG. 4 illustrate that without phlorizin benzylazide present, about 35-40% of the cells from these patients assumed the typical sickle shape (only cells having a 3:1, length:width ratio were considered to be sickled); whereas, with the phlorizin benzylazide, the deoxygenation caused a maximum increase of 5% more than the 10% of cells already sickled at zero time. Actually, the effect of phlorizin benzylazide is even more dramatic. […] The 10-15% sickled cells present at zero time are probably the so-called irreversibly sickled cells (ISC).

[6] = Absorption and elimination of tritiated compound in rats (blood tritium after intraperitoneal injection); type: in vivo; conditions: for Cmax: rat approx. 450 g, read-out: peak concentration in the blood
Protocol: (§4) An animal study was then conducted to determine the absorption and elimination and characteristics of the phlorizin benzylazide and the resulting level of safety. Three adult rats of approximately 450 grams each were injected intraperitoneally at zero time in 1, 2 and 3 mg doses of tritiated phlorizin benzylazide (875,000 cpm/mg). Thereafter, serial tail blood samples were taken at varying times and analyzed for tritium. Maximal absorption of the compound from the peritoneal compartment was slow (note FIG. 5) and maximum blood level concentrations were obtained only after about 20 hours. The initial very rapid entry and elimination of a small fraction of the radioactivity was probably tritiated H2 O and other radioactive impurities. […] The absorption rate constant was estimated to be 0.07 hr^-1. […] This feature could, of course, offer advantages for therapy in a sickle cell crisis wherein long term effectiveness is desired.

[7] = Safety observation in rats (behavior, gross examination, histology); type: in vivo
Protocol: as §4

sugar transporter = experiment: Interaction with the sugar (glucose) transporter of human red blood cells; type: biochemical
Text: (§5) From the above, it is clear that a need exists for a safe, effective and clinically useful compound for the treatment of sickle cell anemia. […] After allowing the compound to associate with its specific membrane receptor, activation with light was expected to result in relatively specific, covalent, irreversible labeling of the transporter.

[8] = system: normal human red blood cells; experiment: Initial photoaffinity-labeling experiments: effect on red blood cells before illumination; type: cell-based; conditions: isotonic buffer; time and drug dose-dependent
Text: as §5

sickle patients = conditions: low sodium diet; cited from earlier work
[9] = 16 (head: κ M) phlorizin benzylazide
[10] = 31 (head: κ M) phlorizin benzylazide
[11] = 62 (head: κ M) phlorizin benzylazide
[12] = 12.5 μM, 4° C., 5 and 10 min, n=2 (FIG. 2)

Compound: CC[C@@]1([C@@H]2O[C@@H]([C@H]3O[C@@](O)(CO)[C@H](C)C[C@@H]3C)C[C@@H]2C)CC[C@H]([C@]2(C)CC[C@]3(C[C@H](O)[C@@H](C)[C@@H]([C@@H](C)[C@@H](OC)[C@H](C)C(=O)O)O3)O2)O1 [Monensin]
deformability of the red blood cell (sickle red blood cells [1]): some improvemement in the deformability of the red blood cell
toxicity (experimental animals): highly toxic

Compound: O=C(CCc1ccc(O)cc1)c1c(O)cc(O)cc1O [phloretin]
toxic effects [2]: toxic effects at all sites in the body

lysis during swelling experiment (human red blood cells; [12]): essentially no lysis
Cmax ([6]; intraperitoneal, 1 mg): 2.5 µM
Cmax ([6]; intraperitoneal, 2 mg): 5.1 µM
Cmax ([6]; intraperitoneal, 3 mg): 6.3 µM
elimination process ([6]; rat, intraperitoneal): first order process
mean half life (elimination) ([6]; rat, intraperitoneal): 75 h
maximal absorption from the peritoneal compartment ([6]; rat, intraperitoneal (FIG. 5)): slow
time of maximum blood level concentration ([6]; rat, intraperitoneal, 1, 2 and 3 mg): about 20 hours
absorption rate constant ([6]; rat, intraperitoneal, estimated): 0.07 h⁻¹
Compound: [N-]=[N+]=Nc1ccc(Cc2c(O)cc(O[C@@H]3O[C@H](CO)[C@@H](O)[C@H](O)[C@H]3O)c(C(=O)CCc3ccc(O)cc3)c2O)cc1 [phlorizin benzylazide]
hemolysis at 4 µM ([3]; 4 (head: κ M) phlorizin benzylazide): 0%
hemolysis at 8 µM ([3]; 8 (head: κ M) phlorizin benzylazide): 0%
hemolysis at 16 µM [3, 9]: 31 ± 8.6%
hemolysis at 31 µM [3, 10]: 41 ± 9.6%
hemolysis at 62 µM [3, 11]: 66 ± 8%
t1/2 (time required to achieve 50% of the total hemolysis) [4, 9]: 7.5 min
t1/2 (time required to achieve 50% of the total hemolysis) [4, 10]: 4.33 min
t1/2 (time required to achieve 50% of the total hemolysis) [4, 11]: 3.88 min
cell lysis ([4]; concentrations below 10 μM): no cell lysis was observed
cell lysis, extent and rate (FIG. 1) ([4]; higher vs lower level of phlorizin benzylazide, 2°-4° C.): a greater percentage of cell lysis (an absorbance of 0.087 represents 100% lysis) but the rate at which the cells burst was much faster
mean cell volume (human red blood cells; [12]): a time dependent increase in mean cell volume
cell swelling (human red blood cells; low phlorizin benzylazide levels, approx. 4° C.): cell swelling occurred
cell shape on deoxygenation (sickle red blood cells [5]; 100% Argon): a uniform spherocytosis was induced in most cells
maximum increase of sickled cells on deoxygenation, over the 10% already sickled at zero time (sickle red blood cells [5]; 100% Argon, without compound about 35-40% sickled (FIG. 4)): 5%
hemolysis in the deoxygenation experiment (sickle red blood cells [5]; Example 2): no significant hemolysis
gross examination of all tissues ([7]; rat, 1, 2 and 3 mg intraperitoneal): unremarkable
behavioral abnormalities ([7]; rat, 1, 2 and 3 mg intraperitoneal, 5 days (lowest dosage) or 7 weeks): None of the animals exhibited any unusual behavioral abnormalities
histological examination of the liver and kidney ([7]; rat, two older animals (7 weeks)): no pathology
affinity for the sugar transporter (sugar transporter; subdued light): high, but reversible
inhibition of the transfer mechanism (sugar transporter; sugar transporter): potent inhibitor
effect on red blood cells before illumination [8]: the red blood cells were found to swell and, in a time and drug dose-dependent manner, burst even in an isotonic buffer

Compound: anti-diuretic hormone: anti-diuretic hormone given to sickle patients on a low sodium diet to reduce plasma Na+-osmolality (CYFQNCPRG-NH2; disulfide 1-6; UniProt P01185 20-28, looked up)
clinical success (reduction of plasma Na+ osmolality / cell hemoglobin S concentration) (sickle patients): very limited success
